Literature values in patent publication US7166468B2, “Production of the lantibiotic cinnamycin with genes isolated from Streptomyces cinnamoneus” (Plant Bioscience Limited, priority 2001, dated 2007).
Ends that are not written are not given here.

Tested on: B. subtilis
Conditions: stated as known activity

cinnamycin (CRQSCSFGPFTFVCDGNTK; thioether (positions not given here); not fully specified (bridges); also: lanthionine bridges, positions not given here)
Known activity of cinnamycin: inhibition of the growth of B. subtilis strains: inhibition of the growth of the B. subtilis strains
